The values that follow come from publication PMC10794345, “Analysis of vascular disruption in zebrafish embryos as an endpoint to predict developmental toxicity” (Archives of Toxicology, 2023).

The test system of series [1] is zebrafish embryos (wild-type strain OBI/WIK). Kind of series: ISV inhibition (angiogenesis) by video subtraction in wildtype zebrafish embryos. Format: in vivo, zebrafish (D. rerio). As for the experimental part: A wild-type adult zebrafish strain (D. rerio, strain OBI/WIK, generation F3), originating from an in-house cross of zebrafish strains UFZ-OBI and WIK, was used for all experiments. The Tg(kdr:EGFP) strain was kindly provided by the University of Jena. Fish were fed twice daily with dry food (SDS-400, Special Diets Services, Essex England) and once daily with Artemia sp. […] Spawning trays were inserted 4–6 h before the end of the light cycle. The following day, spawning was initiated by the onset of light and eggs were collected within 1 h. Exposure in all experiment was ceased at 96 hpf.
(§1) Exposure was conducted in rectangular 96-well microplates (Clear Polystyrene, flat bottom, Uniplate, Whatman, GE Healthcare) covered by a lid with a test volume of 400 µL of exposure media. For each replicate one embryo per well and 16 wells per concentration were assessed. Experiments were performed with at least two replicates on independent days and breeding.
To determine the number of ISVs in the trunk region, high-resolution images of 96 hpf-old zebrafish embryos were recorded using a Leica DM6B-Z microscope (Leica, Wetzlar, Germany) attached to the VAST imaging system, and a camera (Leica DFC9000 sCMOS, objective: HC APO L U-V-I 20x/0.50 WATER UV). A series of 20 images with a frame rate of 20 images per second and a 2 × 2 pixel binning was recorded in autofocus mode for each embryo.
A series of MATLAB scripts (Supplement File ‘Workflow 3.m’ and ‘Workflow 4.m’) was used to convert the image series into a video and to visualize the blood vessel by applying a video subtraction approach (Figure SI1). Briefly, each video frame was subtracted from the average image of the whole image sequence and converted to a binary image by applying a Gaussian blur (σ = 5) and a threshold of 0.025 to obtain optimal contrast in binary images. Subsequently, the sum of all binary images was calculated. Due to movement of the blood cells the subtraction approach removed all parts from the image which were not moving resulting in an image of the blood vessels. This binary image of the blood vessel network in the zebrafish embryo tail was then processed with the FishInspector annotation software (version 1.70). […] The number of ISVs was obtained by application of a KNIME workflow to FishInspector annotation files. Subsequently concentration–response analysis was conducted using a KNIME workflow. The coefficient of variation (CV) of controls was calculated for both the subtraction and the fluorescence-based method by dividing the standard deviation of individual embryos with the control mean: CVControl=SD/Mean.
The assessment of lethality and morphological features was based on the percentage of embryos affected. Therefore, morphological endpoints were dichotomized, i.e. feature metrics were converted to the percentage of embryos deviating from controls. An embryo was considered to deviate when it was outside 1.5-fold of the standard deviation range of the mean of the control group. The control mean was determined by pooling control embryos across all experiments (n = 160) (available at git.ufz.de). For heart rate and angiogenesis (number of ISVs) the analysis was based on normalized values, i.e. for each experiment the values of the treatment were divided by the control value. The experiments were designed to calculate effect concentrations based on modelled curve fits. Different concentrations were used in at least two independent replicates, with means of each replicate based on the exposure of 16 different embryos per concentrations. Effect concentration were only modeled when three conditions were met. […] (2) The Akaike information criterion (AIC) for the log-logistic model was lower than the AIC for a linear model with slope 0 (lower p values for the letter would indicate that there is no trend in the data).

Series [2] deals with early life stage zebrafish. The settings on record: cited from earlier work.
Series [3] deals with zebrafish embryos (wild-type strain OBI/WIK). Kind of series: Lethality of zebrafish embryos at 96 hpf. It is filed as in vivo, zebrafish (D. rerio). The settings on record: for Mortality (in words): embryos exposed from 24 hpf, compared to exposure from 3 hpf. As for the experimental part:
as §1, with “Fertilized and normally developed embryos were selected according to Kimmel et al. ([1995]) with a dissection microscope (Olympus SZx7-ILLT) at 1 hpf. Depending on experiment, exposure was started within 2–3 h post-fertilization (16–128 cell stages) or at 24 hpf. Exposure” for “Exposure”
Concentration–response curves were fitted for lethality, heart rate, morphological features as previously described (Teixidó et al. [2019], [2022]). The assessment of lethality and morphological features was based on the percentage of embryos affected. Therefore, morphological endpoints were dichotomized, i.e. feature metrics were converted to the percentage of embryos deviating from controls. An embryo was considered to deviate when it was outside 1.5-fold of the standard deviation range of the mean of the control group. The control mean was determined by pooling control embryos across all experiments (n = 160) (available at git.ufz.de). For heart rate and angiogenesis (number of ISVs) the analysis was based on normalized values, i.e. for each experiment the values of the treatment were divided by the control value. The experiments were designed to calculate effect concentrations based on modelled curve fits. Different concentrations were used in at least two independent replicates, with means of each replicate based on the exposure of 16 different embryos per concentrations. Effect concentration were only modeled when three conditions were met. (1) The Tukey trend test based on the R package "tukeytrend" (Schaarschmidt et al. [2022]) was deriving a maximum p-value of 0.05. (2) The Akaike information criterion (AIC) for the log-logistic model was lower than the AIC for a linear model with slope 0 (lower p values for the letter would indicate that there is no trend in the data). (3) We calculated effect concentrations only if at least 30% of embryos for that endpoint were affected in at least one exposure concentration of (for normalized data) a reduction or increase by 30% was observed.

Where [4] appears, read: Danio rerio, 24–96 hpf exposure, ± 95% confidence intervals, read-out: IC50 of ISV inhibition.

Molecules are shown by their SMILES. Where two headings read alike, the source gives them in different places.

By LC50 is commonly meant the concentration lethal to half of the exposed cells or organisms. A high value points to lower toxicity.

`CN(C)c1ccc(C=C2C(=O)Nc3ccccc32)cc1` [SU4312]: the IC50 is 2.3 ± 0.42 µM in series [1] (3–96 hpf exposure, ± 95% confidence intervals, read-out: IC50 of ISV inhibition); 2.59 ± 0.6 µM in series [1] (24–96 hpf exposure, ± 95% confidence intervals, read-out: IC50 of ISV inhibition); 0.09 µM in series [1] (exposure window not stated at this place, read-out: IC50 / loss of ISV number, current study as restated in discussion); 1.8 µM in series [2] (ref Tal et al. [2014], read-out: IC50 (ISV inhibition)). In series [3] (3–96 hpf exposure, ± 95% confidence intervals), this compound gave an LC50 of 2.11 ± 0.22 µM. The “Mortality (in words)” value in series [3] was “no”.
As for `Cc1cc(C)c(/C=C2\C(=O)Nc3ccccc32)[nH]1` [SU5416], the IC50 in series [1] (setting [4]) stood at 2.1 ± 0.35 µM. The “Reduction (ISV)” value in series [2] (late exposure scenario, 40 µM, ref Parng et al. [2002]) was 40%. For the same compound, in series [2] (late exposure scenario, ref Panneerselvan and Ragunathan [2018]), the “Concentration with complete ISV inhibition” value is 2 µM. For the same compound, in series [2] (ref Serbedzija et al. [1999]), the “Concentration with inhibition of ISV formation” value was 1 µM. Moreover, in series [3], the “Mortality (in words)” value is recorded as “reduced”.
For the compound `CNC(=O)c1cc(Oc2ccc(NC(=O)Nc3ccc(Cl)c(C(F)(F)F)c3)cc2)ccn1` [Sorafenib], the IC50 in series [1] (Danio rerio, 3–96 hpf exposure, ± 95% confidence intervals, read-out: IC50 of ISV inhibition) is 1.37 ± 0.1 µM; in series [1] (setting [4]), 1.36 ± 0.24 µM; in series [2] (ref Lin et al. [2019], read-out: IC50 from scoring system of different ISV length) it was 0.53 µM. The “Mortality (in words)” value in series [3] was “no”.
